Laboratory results as given in paper PMC3772838, “Preclinical Development of a Novel Class of CXCR4 Antagonist Impairing Solid Tumors Growth and Metastases” (PLoS ONE, 2013).

Key:
[1] = test system: B16-CXCR4 murine melanoma cells; experiment: B16-CXCR4 melanoma lung metastases model; format: in vivo, C57BL/6 mice; settings: cells pre-treated 30 min with 10 µM, IP once a day for 10 days, peptides 2 mg/kg, AMD3100 1.25 mg/kg
Description: (§1) All mice were obtained from Harlan (Bar Harbor, ME, USA) and their care was in accord with institutional guidelines. Twenty-five 6-8-week-old female C57BL/6 mice were inoculated into the tail vein with 5×10^5 B16–CXCR4 cells pre-treated for 30 minutes with peptide S (10 µM), peptide R (10 µM), peptide I (10 µM), or AMD3100 (10 µM). Six hours later intraperitoneal (IP) treatment started with AMD3100 (1.25 mg/kg) or each peptide (2 mg/kg) in sterile PBS once a day for 10 days. A week later the mice were sacrificed. The experiment was repeated three times. The lung metastases assay was also conducted with K7M2 murine osteosarcoma cells. Twenty-five 6-8-week-old female Balb/c mice were injected via tail vein with 2.5×10^5 K7M2 cells pre-treated for 30 minutes with AMD3100 (10 µM), peptide S (10 µM), peptide R (10 µM), peptide I (10 µM) and animals were treated IP daily for 15 days with 2.5 mg/kg for AMD3100 group and 10 mg/kg for each peptide groups. A week later the mice were sacrificed. Xenograft tumor growth was evaluated using pEGFP-SN12C cells in exponential growth phase subcutaneously injected into the right flank of twenty-five 6-8-week-old female CD1 nude mice. 2×10^6 SN12C-pEGFP were injected in the right flank of each mouse and treated with AMD3100 (1.25 mg/kg) and peptides (2 mg/kg) for 10 days ip. A week later mice were euthanized and tumor volume evaluated through Leica MacroFluo fluorescence stereomicroscope (Leica microsystem, Houston, TX). The experiment was repeated three times. The Istituto Nazionale per lo Studio e la Cura dei Tumori, Fondazione Giovanni Pascale Independent Etical Comettee approved the study (CEI/600/12).
(A) B16-CXCR4 tumor cells pre-treated for 30 minutes with AMD3100 (10 µM), peptide R (10 µM), peptide I (10 µM), or peptide S (10 µM) were inoculated into the tail vein of C57/B female mice and the mice were further treated intraperitoneally for 10 days with 1.25 mg/kg AMD3100, or 2 mg/kg peptide R, peptide I or peptide S. Gross examination of representative lungs; (B) Graphical representation of the number of lung metastases in treated mice. Double tailed T-Test was used for statistical analyses. The experiments were repeated three times.

P-ERK1/2 = experiment: CXCL12-induced p-ERK induction (immunoblotting); format: cell-based, human; settings: PES43 cells serum-starved, CXCL12 100 ng/ml, after 5 minutes
Description: Cells were homogenized in lysis buffer (40 mM Hepes pH 7,5, 120 mM NaCl, 5 mM MgCl2, 1 mM EGTA, 0,5 mM EDTA, 1% Triton X-100) containing protease (Complete Tablets- EDTA-free, Roche) and phosphatase inhibitors (20 mM α-glycerol-3-phosphate, 2,5 mM Na-pyrophosphate). The following primary antibodies were used: anti-p-ERK (sc7383, Santa Cruz Biotechnology, Inc., Santa Cruz, CA, USA) and anti-ERK2 (sc 154G, Santa Cruz Biotechnology CA, USA). P-Erk induction was plotted as ratio P-Erk in the presence of CXCL12 (100 ng/ml)/P-Erk in serum free.
(§2) Experiments were conducted using PES43 cells. (A) Migration was assayed in 24-well Transwell chambers using inserts with 8-µm pore membrane. […] Migrated cells on the lower surface were fixed, stained with H&E and counted microscopically. The results are expressed as the migration index relative to migration in presence of BSA alone. […] Images were acquired with OKO Time Lapse. […] PES43 cells were serum-starved and incubated with CXCL12 (100 ng/ml) alone or in presence of AMD3100/peptides. Each peptide was tested in at least three different experiments. Double tailed T-Test was used for statistical analyses. Differences were considered significant at P<0.05 compared to control.
PES43 cell lines were serum starved for 16 hours. […] (TIF) Click here for additional data file.

[2] = test system: SN12C-EGFP renal cancer cells; experiment: SN12C-pEGFP subcutaneous xenograft tumor growth; format: in vivo, CD1 nude mice; settings: IP 10 days, peptides 2 mg/kg, AMD3100 1.25 mg/kg; measured a week later by fluorescence stereomicroscope; control 65.97±35.1; average
Description: as §1
6 to 8-week-old female CD1 nude mice were injected subcutaneously with 2×10^6 pEGFP-SN12C cells pre-treated with 10 µM AMD3100 or 10 µM of each peptide. Beginning the following day mice were further treated intraperitoneally for 10 days with 1.25 mg/kg AMD3100 or 2 mg/kg of peptides R, I or S. A week later mice were euthanized and tumor volume evaluated directly from the flank of mice using a Leica MacroFluo fluorescence stereomicroscope (Leica microsystem, Houston, TX) (A). The experiments were repeated three times. B. SN12C-PEGFP cells migration toward CXCL12 in the presence of AMD3100 or Peptide R, S and I.

CXCR4 [3] = experiment: CXCL12-induced calcium mobilization assay (Fluo-3 AM); format: cell-based, human; settings: CCRF-CEM cells, 10 µM peptide, percent of fluorescence with CXCL12 alone; at least three experiments
Description: For the calcium efflux studies a 2 mg/mL stock solution of Fluo-3 acetoxymethylester (Invitrogen, Carlsbad, CA) in anhydrous DMSO was used. […] CCRF–CEM cells were resuspended in cell loading buffer (PBS, 1% FCS, 1 mmol/L MgCl2, and 1 mmol/L CaCl2) at 5×10^5 cells/mL. Fluo-3AM and Pluronic acid were added to each sample to increase Fluo-3AM solubility and improve dye loading into the cells. Baseline calcium efflux was established, then chemokines were added as indicated and chemokine-induced calcium efflux was measured.
(§3) (A) The amount of peptides or AMD3100 bound was assessed indirectly by flow cytometry using the PE-labelled anti-CXCR4 antibody (clone 12G5). Results are expressed as the percent antibody bound. (B) The Ca^2+ influx assay was performed using CCRF-CEM cells and Fluo-3 AM calcium indicator. CCRF-CEM cells were incubated 30 minutes at 37°C with Fluo-3 AM and 15 minutes with AMD3100 (10 µM)/peptides (10 µM) and then treated with CXCL12. Results are expressed as the percent of Fluo-3 AM fluorescence in presence of CXCL12 alone. Each peptide was tested in at least three different experiments. Double tailed T-Test was used for statistical analyses. Differences were considered significant at P<0.05 compared to control. Control (CTRL).

[4] = test system: PES43 human melanoma cells; experiment: CXCL12-dependent Transwell migration of PES43 cells; format: cell-based; settings: 100 ng/mL CXCL12 in lower chamber, 16 h, tested 10 nM, 100 nM, 1 µM, 10 µM
Description: (§4) Migration was assayed in 24-well Transwell chambers (Corning Inc., Corning, NY) using inserts with an 8-µm pore membrane. Membranes were precoated with collagen (human collagen type I/III) and fibronectin (20 µg/mL each). […] After 16 h incubation, cells on the upper surface of the filter were removed using a cotton wool swab; migration of cells in migration media alone was compared with migration in media containing CXCL12. The cells were counted in ten different fields (original magnification ×40). The migration index was defined as the ratio between migrating cells in the experimental group and migrated cells in the control group. For the wound closure assay, tested cells were allowed to reach confluence in six-well plates containing serum-depleted growth medium and scratched with pipette tips to make wounds. The wound closure was observed microscopically 6 hours post-wounding (OKO Time Lapse).
as §2

CXCR4 [5] = experiment: Competition with 12G5 anti-CXCR4 antibody binding (flow cytometry); parameters: species or system human; settings: CCRF-CEM cells, 10 µM peptide, 30 min pre-incubation at 37°C, PE-labelled 12G5, flow cytometry; at least three experiments
Description: (§5) CXCR4 binding was evaluated as previously described. Briefly 5×10^5 CCRF–CEM cells were pre-incubated with 10 µM peptides or AMD3100 in binding buffer (PBS 1× plus 0.2% BSA and 0.1% NaN3) for 30 minutes at 37°C, 5% CO2 and then labeled for 30 minutes with anti-CXCR4 PE-antibody (FAB170P, clone 12G5, R&D Systems, Minneapolis, MN, USA). The cells were analyzed by FACS Canto II cytofluorometer (Becton Dickinson Immunocytometry Systems, Mountain View, CA, USA).
as §3

[6] = test system: PES43 human melanoma cells; experiment: CXCL12-mediated wound closure assay; format: cell-based; settings: 6 hours post-wounding
Description: as §4, §2

CXCR7 = experiment: Anti-CXCR7 antibody (clone 11G8) binding in CXCR7 overexpressing cells; parameters: species or system human; settings: MCF-7 cells; peptides 10 µM, CXCL11 100 nM, 30 min pre-incubation; Figure S3
Description: [The procedure below names another target; the source says it served here with some conditions changed.] as §5
(§6) Fluo-3AM and Pluronic acid were added to each sample to increase Fluo-3AM solubility and improve dye loading into the cells. (TIF) Click here for additional data file.

CXCR3 = experiment: Anti-CXCR3 antibody (clone 1C6/CXCR3) binding in CXCR3 overexpressing cells; parameters: species or system human; settings: COLO205 cells; peptides 10 µM, CXCL11 100 nM, 30 min pre-incubation; Figure S3
Description: [The procedure below names another target; the source says it served here with some conditions changed.] as §5, §6

For `c1cc(CN2CCCNCCNCCCNCC2)ccc1CN1CCCNCCNCCCNCC1` [AMD3100, reference compound], the “fold reduction of the number of lung metastases vs control” value [1] was 5.6 fold, the “number of lung metastases” value ([1]; control 8.4±3.49, average) was 1.5±2.9 and the “CXCL12-mediated p-ERK induction” value (P-ERK1/2) was “reduced”. The “tumor volume of SN12C-GFP xenograft” value [2] was 35.53±10.42 mm^3.
In the case of “Arg-Ala-[Cys-Arg-Tyr-Trp-Cys] [Peptide T]”, the “CXCL12-induced calcium efflux (Fluo-3 AM fluorescence)” value (CXCR4 [3]) is reported as 33.65 % of control, the “CXCL12-mediated p-ERK induction” value (P-ERK1/2) is reported as “not” and the “concentration at which CXCL12-dependent migration was inhibited” value [4] is reported as at most 10 nM. For the same molecule, the “association of the 12G5-CXCR4 antibody to the receptor” value (CXCR4 [5]) was 22 % of control and the CXCL12-mediated wound healing [6] was “delayed”.
In the case of “CXCL11: specific ligand (chemokine) that inhibited antibody binding to CXCR3 or CXCR7”, the “binding to CXCR7 (anti-CXCR7 antibody)” value (CXCR7) is reported as “inhibited” and the “binding to CXCR3 (anti-CXCR3 antibody)” value (CXCR3) is reported as “inhibited”.
